Test results as given in the supplement of paper PMC10307832.

How the values were obtained:
Experiment in all cases: relative viability (nuclei count vs DMSO), 5 days (fraction); higher = more cells survive
[1] = compound: CC1=C(C(=NN1)C)CC2=C(C3=C(S2)N(C(=O)N(C3=O)C)CC(C)C)C(=O)N4C[C@@H](CO4)O + COc1cccc2cc(-c3nc([C@H]4CC[C@H](C(=O)O)CC4)n4ncnc(N)c34)[nH]c12 [OSI-027] (partner 0.5 µM)
How it was run: (§1)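 Relative viability equals treated-well nuclei counts divided by vehicle-well nuclei counts. Counts came from 4× images of lung cancer cell lines grown in 1536-well plates for 5 days after pin-tool dosing on the day after seeding. Dosing used one drug alone or a fixed anchor-drug dose plus five library-drug doses (not always all listed) in √10 steps, and values are medians of duplicate plates.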

[2] = compound: CC1=C(C(=NN1)C)CC2=C(C3=C(S2)N(C(=O)N(C3=O)C)CC(C)C)C(=O)N4C[C@@H](CO4)O + C[C@]1(O)C[C@@H](c2nc(-c3ccc4ccc(-c5ccccc5)nc4c3)c3c(N)nccn32)C1 [Linsitinib] (partner 1 µM)
How it was run: as §1

[3] = compound: CC1=C(C(=NN1)C)CC2=C(C3=C(S2)N(C(=O)N(C3=O)C)CC(C)C)C(=O)N4C[C@@H](CO4)O + N=C(N)NC(=N)NCCc1ccccc1 [Phenformin] (partner 250 µM)
How it was run: as §1

[4] = compound: Cc1ccccc1C(C(=O)NC1CCCCC1)N(C(=O)Cn1ccnc1C)c1cccc(F)c1 [IDH-C35] + CCNC(=O)c1noc(-c2cc(C(C)C)c(O)cc2O)c1-c1ccc(CN2CCOCC2)cc1 [Luminespib] (partner 0.01 µM)
How it was run: as §1

Row | Cell Line | relative viability ([1]; first compound 0.0025 µM) | relative viability ([1]; first compound 0.007906 µM) | relative viability ([1]; first compound 0.025 µM) | relative viability ([1]; first compound 0.07906 µM) | relative viability ([1]; first compound 0.25 µM) | relative viability ([2]; first compound 0.0025 µM) | relative viability ([2]; first compound 0.007906 µM) | relative viability ([2]; first compound 0.025 µM) | relative viability ([2]; first compound 0.07906 µM) | relative viability ([2]; first compound 0.25 µM) | relative viability ([3]; first compound 0.0025 µM) | relative viability ([3]; first compound 0.007906 µM) | relative viability ([3]; first compound 0.025 µM) | relative viability ([3]; first compound 0.07906 µM) | relative viability ([3]; first compound 0.25 µM) | relative viability ([4]; first compound 0.08 µM) | relative viability ([4]; first compound 0.253 µM) | relative viability ([4]; first compound 0.8 µM) | relative viability ([4]; first compound 2.53 µM) | relative viability ([4]; first compound 8 µM)
1 | SK-MES-1 | 0.664 | 0.68 | 0.634 | 0.66 | 0.694 | 1.05 | 1.03 | 1.04 | 1.15 | 1.14 | 0.701 | 0.671 | 0.629 | 0.686 | 0.704 | 0.701 | 0.939 | 0.855 | 0.861 | 0.749
2 | NCI-H2085 | 0.722 | 0.685 | 0.759 | 0.736 | 0.447 | 0.953 | 0.956 | 0.814 | 0.844 | 0.77 | 0.677 | 0.674 | 0.589 | 0.571 | 0.44 | 0.352 | 0.458 | 0.519 | 0.428 | 0.416
3 | SW 1573 | 0.711 | 0.846 | 0.527 | 0.69 | 0.64 | 0.869 | 0.905 | 0.869 | 0.804 | 0.782 | 0.239 | 0.236 | 0.115 | 0.123 | 0.117 | 0.136 | 0.218 | 0.257 | 0.442 | 0.248
4 | NCI-H727 | 0.731 | 0.504 | 0.505 | 0.586 | 0.708 | 0.233 | 0.324 | 0.386 | 0.259 | 0.247 | 0.424 | 0.504 | 0.486 | 0.489 | 0.372 | 0.27 | 0.398 | 0.39 | 0.407 | 0.33
